Test results: patent US10807992B2, “Single enantiomer antiparasitic compounds” (priority 2017, dated 2020)

Assays:
[1] = tested on: Ctenocephalides felis; experiment: In vitro contact activity against fleas (coated substrate); details: for mortality at 0.006 ppm: Trial 3, dose 0.006 ppm; for mortality at 0.024 ppm: Trial 3, dose 0.024 ppm; for mortality at 0.098 ppm: Trial 3, dose 0.098 ppm; for mortality at 0.39 ppm: Trial 3, dose 0.39 ppm; for mortality at 1.56 ppm: Trial 3, dose 1.56 ppm; for mortality at 6.25 ppm: Trial 3, dose 6.25 ppm; for mortality at 25 ppm: Trial 3, dose 25 ppm; for mortality at 100 ppm: Trial 3, dose 100 ppm
Protocol: Ctenocephalides felis (Avista Pharma, Inc., RTP, NC), 1-7days post hatch, held in an environmental chamber at 24° C., 85% humidity.
For flea contact tests, vial caps were pre-drilled with a single hole in the center of each cap to allow air exchange. A filter paper (Whatman Grade 540 2.1 cm) was placed in the lid of each vial. Pipe cleaners cut to 0.5 inches were inserted in each test vial. An aliquot was taken from each compound stock and added to an acetone/triton solution to achieve the desired top concentrations for the study. Serial dilutions were conducted from the top dose (i.e. 100 ppm) to achieve the desired concentration for EC50 and EC90 determination. The final DMSO concentration was 0.5%. A 75 μL aliquot of each compound formulation was added to each 0.5 inch pipe cleaner contained in the treatment vial. The vials were loosely capped and allowed to dry for a minimum of four hours in a chemical fume hood.
Compounds tested were C1 racemate, the C1 (R) enantiomer, and the C1 (S) enantiomer. For Trial 3, the C1 (R) enantiomer and the C1 (S) enantiomer were further chiral purified to achieve >99% purity.
For both contact and ingestion assays, ten newly emerged unfed adult fleas, 0-7 days old Ctenocephalides felis, from a laboratory colony, were aspirated into each vial or cage. The test vials for contact assays were held in an environmental chamber at 24° C., 80% humidity with light/dark cycles (12 hours each). The cages for flea ingestion assays were held in a temperature-controlled artificial feeding apparatus to allow continual access to organic bovine blood containing the desired concentration of compound. Fresh aliquots of compound-spiked bovine blood were provided daily for the duration of the study.
Fleas were evaluated for percent mortality at various time points between 2 hours and 48 hours post infestation. Fleas showing normal movement and/or jumping ability were considered viable and those showing no movement after tapping the vials were scored as dead.

[2] = tested on: Ctenocephalides felis (flea), Ixodidae (tick), and Aedes aegypti (mosquito); experiment: Bio-profiling of C1 racemate and enantiomers, overall conclusions of contact and ingestion assays
Description: 1-[6-[5-(3,5-dichloro-4-fluoro-phenyl)-5-(trifluoromethyl)-4H-isothiazol-3-yl]spiro[1H-isobenzofuran-3,3′-azetidine]-1′-yl]-3,3,3-trifluoro-propan-1-one (referred to herein as C1 racemate) is an isothiazoline compound consisting of two isomers: (R)-1-[6-[5-(3,5-dichloro-4-fluoro-phenyl)-5-(trifluoromethyl)-4H-isothiazol-3-yl]spiro[1H-isobenzofuran-3,3′-azetidine]-1′-yl]-3,3,3-trifluoro-propan-1-one (referred herein as C1 (R) enantiomer) and (S)-1-[6-[5-(3,5-dichloro-4-fluoro-phenyl)-5-(trifluoromethyl)-4H-isothiazol-3-yl]spiro[1H-isobenzofuran-3,3′-azetidine]-1′-yl]-3,3,3-trifluoro-propan-1-one (referred to herein as C1 (S) enantiomer). The racemic compound and the two enantiomers were tested against adult stages of Ctenocephalides felis (flea) Ixodidae (tick), and Aedes aegypti (mosquito). The compounds were solubilized in DMSO or an acetone/triton solution and dose response curves were generated for the individual compounds.
For evaluation of contact activity, coated-substrate (flea) and coated-vial (tick and mosquito) assay procedures were used. For evaluation of flea ingestion activity, an artificial feeding assay procedure was used. Insecticidal activity was evaluated at various time-points for each assay. Dose response curves were generated in duplicate on three independent test occasions (Trial 1-Trial 3) and EC50 and EC90 values were calculated.
Therefore, mortality correction was not performed in the assays. Calculation of EC50 and EC90 values was performed using XLfit. Both EC50 and EC90 values were calculated using the average of the two replicates for each Trial.
The C1 (R) enantiomer, C1 (S) enantiomer, and the C1 racemate were successfully evaluated against flea, tick, and mosquito contact and ingestion in vitro screening assays.

O=C(CC(F)(F)F)N1CC2(C1)OCc1cc(C3=NS[C@](c4cc(Cl)c(F)c(Cl)c4)(C(F)(F)F)C3)ccc12 [C1 (R) enantiomer, (R)-1-[6-[5-(3,5-dichloro-4-fluoro-phenyl)-5-(trifluoromethyl)-4H-isothiazol-3-yl]spiro[1H-isobenzofuran-3,3′-azetidine]-1′-yl]-3,3,3-trifluoro-propan-1-one]
mortality at 0.006 ppm ([1]; 6 h, Rep1): 0%
mortality at 0.006 ppm ([1]; 6 h, Rep2): 0%
mortality at 0.024 ppm ([1]; 6 h, Rep1): 0%
mortality at 0.024 ppm ([1]; 6 h, Rep2): 0%
mortality at 0.098 ppm ([1]; 6 h, Rep1): 0%
mortality at 0.098 ppm ([1]; 6 h, Rep2): 0%
mortality at 0.39 ppm ([1]; 6 h, Rep1): 0%
mortality at 0.39 ppm ([1]; 6 h, Rep2): 0%
mortality at 1.56 ppm ([1]; 6 h, Rep1): 0%
mortality at 1.56 ppm ([1]; 6 h, Rep2): 0%
mortality at 6.25 ppm ([1]; 6 h, Rep1): 0%
mortality at 6.25 ppm ([1]; 6 h, Rep2): 0%
mortality at 25 ppm ([1]; 6 h, Rep1): 0%
mortality at 25 ppm ([1]; 6 h, Rep2): 0%
mortality at 100 ppm ([1]; 6 h, Rep1): 0%
mortality at 100 ppm ([1]; 6 h, Rep2): 0%
mortality at 0.006 ppm ([1]; 24 h, Rep1): 0%
mortality at 0.006 ppm ([1]; 24 h, Rep2): 0%
mortality at 0.024 ppm ([1]; 24 h, Rep1): 0%
mortality at 0.024 ppm ([1]; 24 h, Rep2): 0%
mortality at 0.098 ppm ([1]; 24 h, Rep1): 0%
mortality at 0.098 ppm ([1]; 24 h, Rep2): 0%
mortality at 0.39 ppm ([1]; 24 h, Rep1): 0%
mortality at 0.39 ppm ([1]; 24 h, Rep2): 0%
mortality at 1.56 ppm ([1]; 24 h, Rep1): 0%
mortality at 1.56 ppm ([1]; 24 h, Rep2): 0%
mortality at 6.25 ppm ([1]; 24 h, Rep1): 0%
mortality at 6.25 ppm ([1]; 24 h, Rep2): 0%
mortality at 25 ppm ([1]; 24 h, Rep1): 0%
mortality at 25 ppm ([1]; 24 h, Rep2): 0%
mortality at 100 ppm ([1]; 24 h, Rep1): 0%
mortality at 100 ppm ([1]; 24 h, Rep2): 0%
mortality at 0.006 ppm ([1]; 48 h, Rep1): 0%
mortality at 0.006 ppm ([1]; 48 h, Rep2): 0%
mortality at 0.024 ppm ([1]; 48 h, Rep1): 0%
mortality at 0.024 ppm ([1]; 48 h, Rep2): 0%
mortality at 0.098 ppm ([1]; 48 h, Rep1): 0%
mortality at 0.098 ppm ([1]; 48 h, Rep2): 0%
mortality at 0.39 ppm ([1]; 48 h, Rep1): 0%
mortality at 0.39 ppm ([1]; 48 h, Rep2): 0%
mortality at 1.56 ppm ([1]; 48 h, Rep1): 0%
mortality at 1.56 ppm ([1]; 48 h, Rep2): 0%
mortality at 6.25 ppm ([1]; 48 h, Rep1): 0%
mortality at 6.25 ppm ([1]; 48 h, Rep2): 0%
mortality at 25 ppm ([1]; 48 h, Rep1): 0%
mortality at 25 ppm ([1]; 48 h, Rep2): 0%
mortality at 100 ppm ([1]; 48 h, Rep1): 0%
mortality at 100 ppm ([1]; 48 h, Rep2): 0%

O=C(CC(F)(F)F)N1CC2(C1)OCc1cc(C3=NS[C@@](c4cc(Cl)c(F)c(Cl)c4)(C(F)(F)F)C3)ccc12 [C1 (S) enantiomer, (S)-1-[6-[5-(3,5-dichloro-4-fluoro-phenyl)-5-(trifluoromethyl)-4H-isothiazol-3-yl]spiro[1H-isobenzofuran-3,3′-azetidine]-1′-yl]-3,3,3-trifluoro-propan-1-one]
mortality at 0.006 ppm ([1]; 6 h, Rep1): 0%
mortality at 0.006 ppm ([1]; 6 h, Rep2): 0%
mortality at 0.024 ppm ([1]; 6 h, Rep1): 0%
mortality at 0.024 ppm ([1]; 6 h, Rep2): 0%
mortality at 0.098 ppm ([1]; 6 h, Rep1): 0%
mortality at 0.098 ppm ([1]; 6 h, Rep2): 0%
mortality at 0.39 ppm ([1]; 6 h, Rep1): 0%
mortality at 0.39 ppm ([1]; 6 h, Rep2): 0%
mortality at 1.56 ppm ([1]; 6 h, Rep1): 0%
mortality at 1.56 ppm ([1]; 6 h, Rep2): 0%
mortality at 6.25 ppm ([1]; 6 h, Rep1): 0%
mortality at 6.25 ppm ([1]; 6 h, Rep2): 0%
mortality at 25 ppm ([1]; 6 h, Rep1): 0%
mortality at 25 ppm ([1]; 6 h, Rep2): 0%
mortality at 100 ppm ([1]; 6 h, Rep1): 0%
mortality at 100 ppm ([1]; 6 h, Rep2): 0%
mortality at 0.006 ppm ([1]; 24 h, Rep1): 0%
mortality at 0.006 ppm ([1]; 24 h, Rep2): 0%
mortality at 0.024 ppm ([1]; 24 h, Rep1): 0%
mortality at 0.024 ppm ([1]; 24 h, Rep2): 0%
mortality at 0.098 ppm ([1]; 24 h, Rep1): 0%
mortality at 0.098 ppm ([1]; 24 h, Rep2): 0%
mortality at 0.39 ppm ([1]; 24 h, Rep1): 0%
mortality at 0.39 ppm ([1]; 24 h, Rep2): 0%
mortality at 1.56 ppm ([1]; 24 h, Rep1): 0%
mortality at 1.56 ppm ([1]; 24 h, Rep2): 0%
mortality at 6.25 ppm ([1]; 24 h, Rep1): 10%
mortality at 6.25 ppm ([1]; 24 h, Rep2): 10%
mortality at 25 ppm ([1]; 24 h, Rep1): 30%
mortality at 25 ppm ([1]; 24 h, Rep2): 20%
mortality at 100 ppm ([1]; 24 h, Rep1): 100%
mortality at 100 ppm ([1]; 24 h, Rep2): 100%
mortality at 0.006 ppm ([1]; 48 h, Rep1): 0%
mortality at 0.006 ppm ([1]; 48 h, Rep2): 0%
mortality at 0.024 ppm ([1]; 48 h, Rep1): 0%
mortality at 0.024 ppm ([1]; 48 h, Rep2): 0%
mortality at 0.098 ppm ([1]; 48 h, Rep1): 10%
mortality at 0.098 ppm ([1]; 48 h, Rep2): 10%
mortality at 0.39 ppm ([1]; 48 h, Rep1): 10%
mortality at 0.39 ppm ([1]; 48 h, Rep2): 0%
mortality at 1.56 ppm ([1]; 48 h, Rep1): 10%
mortality at 1.56 ppm ([1]; 48 h, Rep2): 30%
mortality at 6.25 ppm ([1]; 48 h, Rep1): 70%
mortality at 6.25 ppm ([1]; 48 h, Rep2): 30%
mortality at 25 ppm ([1]; 48 h, Rep1): 100%
mortality at 25 ppm ([1]; 48 h, Rep2): 100%
mortality at 100 ppm ([1]; 48 h, Rep1): 100%
mortality at 100 ppm ([1]; 48 h, Rep2): 100%
potency against ticks ([2]; adult ticks, contact assays): excellent potency against ticks
which enantiomer carries the biological activity of the C1 racemate ([2]; flea, tick and mosquito contact and ingestion assays, Trials 1-3): primarily be associated with the C1 (S) enantiomer
